According to article PMC6199744, “Development of Chemical Proteomics for the Folateome and Analysis of the Kinetoplastid Folateome” (ACS Infectious Diseases, 2018):
Read-outs that look alike come from different tables or passages of the source.

How the values were obtained:
Format in all cases: binding
[1] = biological target: T1, HeLa cell extract proteins (Homo sapiens, UniProt P13995); details: HeLa; captured protein MTHFD2
T1 construct: endogenous in cells; host or cells: HeLa cell extract
T1 sequence (P13995 36-350): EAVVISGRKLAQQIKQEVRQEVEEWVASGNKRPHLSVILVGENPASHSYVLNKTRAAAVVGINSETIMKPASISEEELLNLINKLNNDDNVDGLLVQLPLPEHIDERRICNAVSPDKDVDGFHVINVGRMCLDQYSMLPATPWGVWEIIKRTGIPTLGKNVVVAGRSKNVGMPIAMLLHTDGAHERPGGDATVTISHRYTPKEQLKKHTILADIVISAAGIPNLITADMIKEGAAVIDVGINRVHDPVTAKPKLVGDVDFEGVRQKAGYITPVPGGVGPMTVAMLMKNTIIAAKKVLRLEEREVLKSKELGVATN

[2] = biological target: T2, HeLa cell extract proteins (Homo sapiens, UniProt P31153); details: HeLa; protein MAT2A
T2 construct: endogenous in cells; host or cells: HeLa cell extract

[3] = biological target: T3, HeLa cell extract proteins (Homo sapiens, UniProt P57678); details: HeLa; protein GEMIN4
T3 construct: endogenous in cells; host or cells: HeLa cell extract
T3 sequence (P57678 1-1058): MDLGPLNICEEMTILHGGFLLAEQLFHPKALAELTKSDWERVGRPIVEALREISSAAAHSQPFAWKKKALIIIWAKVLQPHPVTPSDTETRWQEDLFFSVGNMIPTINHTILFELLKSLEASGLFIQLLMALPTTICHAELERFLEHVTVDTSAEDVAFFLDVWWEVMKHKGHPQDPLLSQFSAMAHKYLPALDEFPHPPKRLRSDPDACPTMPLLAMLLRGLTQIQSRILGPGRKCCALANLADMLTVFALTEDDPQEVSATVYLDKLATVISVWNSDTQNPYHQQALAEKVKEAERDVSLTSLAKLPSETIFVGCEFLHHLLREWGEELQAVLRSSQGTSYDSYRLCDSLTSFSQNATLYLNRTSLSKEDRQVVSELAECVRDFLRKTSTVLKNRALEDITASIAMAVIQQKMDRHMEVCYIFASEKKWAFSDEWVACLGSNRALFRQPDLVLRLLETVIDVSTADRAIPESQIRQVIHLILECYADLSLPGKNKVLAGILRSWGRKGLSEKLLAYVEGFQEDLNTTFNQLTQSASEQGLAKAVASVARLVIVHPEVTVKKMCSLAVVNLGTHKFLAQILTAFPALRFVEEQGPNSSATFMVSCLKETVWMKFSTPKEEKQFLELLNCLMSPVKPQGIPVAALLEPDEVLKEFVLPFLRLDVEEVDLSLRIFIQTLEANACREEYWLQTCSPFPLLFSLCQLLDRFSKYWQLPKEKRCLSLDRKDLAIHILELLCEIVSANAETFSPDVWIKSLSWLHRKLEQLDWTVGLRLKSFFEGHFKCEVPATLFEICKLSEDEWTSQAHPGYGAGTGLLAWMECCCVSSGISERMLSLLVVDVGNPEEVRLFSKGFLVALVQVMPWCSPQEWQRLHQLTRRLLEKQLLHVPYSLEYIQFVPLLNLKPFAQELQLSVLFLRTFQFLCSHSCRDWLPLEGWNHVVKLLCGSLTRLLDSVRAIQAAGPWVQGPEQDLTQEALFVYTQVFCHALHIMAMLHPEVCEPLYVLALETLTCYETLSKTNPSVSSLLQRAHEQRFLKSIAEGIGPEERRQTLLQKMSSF

[4] = biological target: T4, HeLa cell extract proteins (Homo sapiens, UniProt Q9BVS4); details: HeLa; protein RIOK2
T4 construct: endogenous in cells; host or cells: HeLa cell extract

[5] = biological target: T5, HeLa cell extract proteins (Homo sapiens, UniProt Q9HA64); details: HeLa; protein FN3KRP (KETOSAMINE-3-KINASE)
T5 construct: endogenous in cells; host or cells: HeLa cell extract
T5 sequence (Q9HA64 1-309): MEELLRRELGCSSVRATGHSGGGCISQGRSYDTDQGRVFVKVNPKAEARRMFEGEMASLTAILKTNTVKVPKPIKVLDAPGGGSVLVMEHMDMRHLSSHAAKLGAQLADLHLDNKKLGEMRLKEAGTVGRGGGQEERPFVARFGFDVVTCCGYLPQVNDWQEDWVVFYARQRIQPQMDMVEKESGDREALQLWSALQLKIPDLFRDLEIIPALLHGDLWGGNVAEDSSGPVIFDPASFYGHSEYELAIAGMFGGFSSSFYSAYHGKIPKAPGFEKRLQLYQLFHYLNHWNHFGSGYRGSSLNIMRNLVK

[6] = test system: HeLa cell extract proteins; details: HeLa

T4 sequence (Q9BVS4 whole entry): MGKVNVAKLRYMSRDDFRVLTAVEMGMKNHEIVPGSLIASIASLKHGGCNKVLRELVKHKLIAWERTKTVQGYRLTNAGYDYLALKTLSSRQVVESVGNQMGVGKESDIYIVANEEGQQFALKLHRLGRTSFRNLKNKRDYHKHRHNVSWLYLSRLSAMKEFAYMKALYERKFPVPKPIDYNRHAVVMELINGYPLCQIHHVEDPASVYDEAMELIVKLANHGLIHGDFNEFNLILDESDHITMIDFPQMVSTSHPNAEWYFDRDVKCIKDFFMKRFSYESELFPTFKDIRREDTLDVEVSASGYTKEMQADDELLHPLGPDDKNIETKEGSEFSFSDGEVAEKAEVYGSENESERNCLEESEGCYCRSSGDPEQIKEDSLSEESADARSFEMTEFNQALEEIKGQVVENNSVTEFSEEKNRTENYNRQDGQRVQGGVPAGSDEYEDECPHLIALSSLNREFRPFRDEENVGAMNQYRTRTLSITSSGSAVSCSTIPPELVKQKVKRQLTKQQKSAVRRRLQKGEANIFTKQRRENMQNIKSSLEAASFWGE
T2 sequence (P31153 whole entry): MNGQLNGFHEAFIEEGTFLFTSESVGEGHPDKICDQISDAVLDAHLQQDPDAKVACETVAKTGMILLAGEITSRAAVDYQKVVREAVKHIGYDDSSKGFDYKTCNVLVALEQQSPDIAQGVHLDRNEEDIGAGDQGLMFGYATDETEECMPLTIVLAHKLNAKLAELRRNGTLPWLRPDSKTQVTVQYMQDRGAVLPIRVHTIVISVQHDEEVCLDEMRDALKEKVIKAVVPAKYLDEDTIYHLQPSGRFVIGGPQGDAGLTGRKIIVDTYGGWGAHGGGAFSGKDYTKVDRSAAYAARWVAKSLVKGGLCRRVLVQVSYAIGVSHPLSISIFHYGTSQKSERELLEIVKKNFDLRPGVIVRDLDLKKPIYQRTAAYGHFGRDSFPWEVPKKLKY

NCCCNc1ccc(C(=O)NC(CCC(=O)O)C(=O)O)cc1 (stereo not drawn) [compound 7]
fold changes relative to vehicle control [1]: 1.02
fold changes relative to vehicle control [2]: 1
fold changes relative to vehicle control [3]: 0.99
fold changes relative to vehicle control [4]: 0.87
fold changes relative to vehicle control [5]: 1.07
fold changes relative to vehicle control ([6]; captured protein EIF1AP1): 0.98
fold changes relative to vehicle control ([6]; captured protein LOC442497): 1.05
fold changes relative to vehicle control ([6]; protein ABCB7 (ISOFORM 2 OF ATP-BINDING CASSETTE SUB-FAMILY B MEMBER 7, MIT[…])): 1.23
fold changes relative to vehicle control ([6]; protein ASAH1 (N-ACYLSPHINGOSINE AMIDOHYDROLASE (ACID CERAMIDASE) 1 ISOFORM B)): 1.18
fold changes relative to vehicle control ([6]; protein GTPBP3 (ISOFORM 2 OF TRNA MODIFICATION GTPASE GTPBP3, MITOCHONDRIAL PRECURSOR)): 1
fold changes relative to vehicle control ([6]; protein LOC654188): 0.99
fold changes relative to vehicle control ([6]; protein MYL6 (ISOFORM SMOOTH MUSCLE OF MYOSIN LIGHT POLYPEPTIDE 6)): 1.14
fold changes relative to vehicle control ([6]; protein NME1-NME2): 0.91
fold changes relative to vehicle control ([6]; protein PSMA1 (ISOFORM LONG OF […] ALPHA TYPE 1)): 1.02
fold changes relative to vehicle control ([6]; protein PSME1 (PROTEASOME ACTIVATOR SUBUNIT 1 ISOFORM 2)): 0.98
fold changes relative to vehicle control ([6]; protein RPLP0-LIKE): 0.93
fold changes relative to vehicle control ([6]; protein HIST2H2BA): 0.9
fold changes relative to vehicle control ([6]; protein LOC646960): 1.02
